A value given as a limit tells only on which side of the number the result lay.

A short description of data set [1]: Rat intestinal perfusion test (in situ), effective intestinal permeability Peff. Format: in vivo. To be noted: for Peff ODV Fumarate: 50 μg/ml in pH 6.8 perfusion buffer. How it is done: O-desmethyl venlafaxine formate was evaluated for oral absorption characteristics. The rat intestinal perfusion model was used.
Rat Intestinal Perfusion Test
(§1) The rat intestine perfusion technique is a direct way to measure the regional absorption properties of a test compound in the gastrointestinal tract. Rat intestinal permeability coefficient (Peff) can be used to predict human in vivo oral absorption of passively absorbed compounds. Fagerholm, M. Johansson, and H. Lennernäs, ? Comparison between permeability coefficients in rat and human jejunum”, Pharm. […] Other characteristics such as formulable Maximum Absorbable Dose (MAD), FDA Biopharmaceutical Classification, etc. can also be estimated.
Perfusion buffer (PB) consisted of KC1 (5.4 mM), NaC1 (48 mM), Na2HPO4 (28 mM), NaH2PO4 (43 mM), mannitol (35 mM), polyethylene glycol (PEG)-4000 (0.1%, w/v), glucose (10 mM). The pH was adjusted to 6.8 with NaOH and osmolarity was adjusted to 290+10 mOsm/l with 1.0 M NaC1. Before the experiment, ^14C-PEC-4000 (0.02 μCi/mL), 3H-mannitol (0.025 μCi/mL), metoprolol (20 μg/mL), and ODV formate or fumarate (50 μg/mL) were added.
Rats used in this study were Charles River CD males, ranging in weight from approximately 300–350 grams.
Metoprolol (a well-absorbed and passively transported compound) was used as a standard and tested simultaneously along with the ODV compounds. Glucose (a well-absorbed and actively transported compound) was used to monitor the physiological functionality of the intestinal barriers. ^14C-labeled PEG-4000 was used as a non-absorbable marker to describe the water flux across the intestinal wall. ^3H-labeled mannitol was used as a paracellularly transported marker to indicate the integrity of the intestinal tight junctions.
All chemicals were of analytical grade. After each experiment, all the analytical assays were performed promptly. For isotope determinations, 0.5 mL of perfusate sample containing ^14C PEG-4000 and ^3H-mannitol was mixed with 5 mL of scintillation cocktail. Radioactivity was counted in a liquid scintillation counter (Wallac 1409). Glucose concentration was determined by the glucose oxidase method (Biochemistry Analyzer). Metoprolol and the ODV compounds were analyzed by HPLC-UV/Vis (HP-1100 with a diode-array detector), using a YMC AQ 120μ, 5μ, 150×4.6 mm column and step gradient mobile phase containing water/0.1% TFA and acetonitrile. The ODV compounds and metoprolol were detected at 226 and 272 nm UV wavelength, respectively. Blank perfusate was assayed to evaluate the interference at these chromatographic conditions.
The perfusions were performed in three intestinal sections of anesthetized rats: duodenum-jejunum, ileum, and colon. The lengths of the segments were approximately 10–12 cm for small intestine segments and 5–6 cm for colon segments. An inflow cannula was inserted at the proximal end and an outflow cannula was inserted at the distal end. Perfusate was pumped through the segment at 0.19 mL/min, and collected at 20, 40, 55, 70, 85 and 100 minutes.
ODV formate or fumarate was added to the perfusion working buffer at a concentration of 50 μg/mL, which is approximately equivalent to a 200 mg human dose. The disappearance rates of ODV compound, metoprolol, and glucose were determined from each collection interval by comparing to the initial compound solution remaining in the syringe at the end of the 100 minutes. This is to correct for any losses due to binding to the syringe or tubing. Meanwhile, drug concentration in perfusate samples were corrected for water influx/efflux, which was computed, based on ^14C-PEG-4000 concentration changes.
Recovery of ^14C-PEG-4000 was determined to provide information on the integrity of the perfused intestinal segment: % PEGrec=(ΣPEGout/ΣPEGin)*100
Overall ^14C-PEG-4000 recovery was calculated and any data for which the individual recovery fell outside of the range of 96%–103% was excluded from the data set. […]

A further data set has as its system Histamine H1. To be noted: cited from earlier work.
For the next data set, the system named is Adrenergic a. To be noted: cited from earlier work.
In the next data set the test system is Norepinephrine reuptake. To be noted: in vitro; read-out: Inhibition of amine reuptake (IC50): Norepinephrine; cited from earlier work.
Another data set deals with D2. To be noted: cited from earlier work.
A further data set deals with Opiate. To be noted: cited from earlier work.
The conditions of data set [2]: in vivo, i.p.; cited from earlier work.
In another data set the test system is Serotonin reuptake. To be noted: in vitro; read-out: Inhibition of amine reuptake (IC50): Serotonin; cited from earlier work.
The next data set relates to Dopamine reuptake. To be noted: in vitro; read-out: Inhibition of amine reuptake (IC50): Dopamine; cited from earlier work.
For the next data set, the system named is Cholinergic. To be noted: cited from earlier work.
A short description of data set [3]: Human fraction of dose absorbed (Fa) predicted from rat Peff. To be noted: for human in vivo Fa (fraction of dose absorbed), estimated: small intestine.
Description: as §1
The fraction of dose absorbed, Fa, in human is currently predicted from (Fagerholm, M. ibid: Fa=100*(1−e^−(2*(Peff,rat+β)*(tres/r)) where […] are the correction factors, tres is the residence time in human small intestine; and r is the radius of the human small intestine. Results Rat Jejunal Perfusion Results Site-Specific Absorption of ODV Formate

The next data set in a line: Solubility in water. Type of data set: physicochemical. To be noted: 26 °C, room temperature (about 25 to 27° C.). From the text: High solubility and high oral absorption are desireable characteristics of a drug, making this salt form of O desmethyl venlafaxine a particularly useful form of O-desmethyl venlafaxine.
Setting [4] is: male, CD, in vivo, 100 min, 50 μg/mL, pH 6.8.

As for `COCCc1ccc(OCC(O)CNC(C)C)cc1` (centres unmarked) [Metoprolol], the “Peff Metoprolol” value in [1] (colon, metoprolol 20 μg/mL tested simultaneously with ODV formate) is reported as 0.583 ± 0.087 10^−5 cm/sec; in [1] (colon, metoprolol 20 μg/mL tested simultaneously with ODV fumarate) it was 11 10^−5 cm/sec; in data set [1] (ileum, metoprolol 20 μg/mL tested simultaneously with ODV formate) it was 3.22 ± 0.07 10^−5 cm/sec; in data set [1] (ileum, metoprolol 20 μg/mL tested simultaneously with ODV fumarate), 5.3 10^−5 cm/sec; in [1] (jejunum, metoprolol 20 μg/mL tested simultaneously with ODV formate) it was 2.50 ± 0.11 10^−5 cm/sec; in [1] (jejunum, metoprolol 20 μg/mL tested simultaneously with ODV fumarate), 1.78 ± 0.93 10^−5 cm/sec.

Regarding `CN(C)CC(c1ccc(O)cc1)C1(O)CCCCC1` (centres unmarked) [O-desmethylvenlafaxine, 1-[2-(dimethylamino)-1-(4-phenol)ethyl]cyclohexanol], in the data set on Histamine H1, the “Affinity for Various Neuroreceptors (% inhibition at 1 uM): Histamine H1” value is reported as 0%. In addition, the “Affinity for Various Neuroreceptors (% inhibition at 1 uM): Adrenergic a” value in the data set with Adrenergic a was 0%. Besides, the IC50 (in general, the concentration needed to halve the response being measured) in the data set on Norepinephrine reuptake is 1160 nM; with Serotonin reuptake it was 180 nM; in the data set with Dopamine reuptake, 13400 nM. Further, the “Affinity for Various Neuroreceptors (% inhibition at 1 uM): D2” value in the data set with D2 is 6%. Also, in the data set with Opiate, the “Affinity for Various Neuroreceptors (% inhibition at 1 uM): Opiate” value was 7%. For the same molecule, the “Reversal of Reserpine-Induce Hypothermia (minimum effect)” value in data set [2] is 3 mg/kg i.p. For the same molecule, the “Affinity for Various Neuroreceptors (% inhibition at 1 uM): Cholinergic” value in the data set on Cholinergic was 7%.

For the molecule `CN(C)CC(c1ccc(O)cc1)C1(O)CCCCC1.O=CO` (centres unmarked) [ODV formate, O-desmethylvenlafaxine formate], the “human in vivo Fa (fraction of dose absorbed), estimated” value in [3] is reported as “about 80%”. The solubility (in general, the dissolved amount per volume that the medium holds) in “Solubility in water” was > 425 mg/mL. Further, in data set [1] (setting [4]), the “Peff as percent of metoprolol's Peff value” was “about 12%” and the “Peff values in the small intestine” value is 1.34–2.18 10^−5 cm/sec.

As for `CN(C)CC(c1ccc(O)cc1)C1(O)CCCCC1.O=C(O)/C=C/C(=O)O` (centres unmarked) [ODV fumarate], in data set [3] (colon), the “in vivo Fa (fraction of dose absorbed), estimated” value is 0%. In data set [3], the “human in vivo Fa (fraction of dose absorbed), estimated” value is 33–45%. Also, in [1] (colon), the “Absorption in the colon” value is reported as “no measurable absorption”, the “Peff ODV Fumarate / Peff Metoprolol” value was found to be 0 and the “Peff ODV Fumarate” value is listed as 0 10^−5 cm/sec. Also, in [1] (ileum), the “Peff ODV Fumarate / Peff Metoprolol” value is recorded as 0.19 ± 0.06 and the “Peff ODV Fumarate” value is on record as 0.678 ± 0.295 10^−5 cm/sec. In addition, in [1] (jejunum), the “Peff ODV Fumarate / Peff Metoprolol” value worked out at 0.09 and the “Peff ODV Fumarate” value was 0.245 10^−5 cm/sec. Further, in data set [1] (small intestine (jejunum to ileum)), the “Peff values in the small intestine” value is 0.24–0.68 10^−5 cm/sec.
